Test results published in patent publication US11638723B2, “Method for generating T cells progenitors” (Assistance Publique—Hopitaux de Paris, priority 2017, dated 2023).
pIC50: −log10 of the molar value.

Key:
[1] = molecular target: T1, Aryl hydrocarbon/Dioxin receptor (AhR) (Homo sapiens, UniProt P35869); details: cited from earlier work
T1 sequence (P35869 11-848): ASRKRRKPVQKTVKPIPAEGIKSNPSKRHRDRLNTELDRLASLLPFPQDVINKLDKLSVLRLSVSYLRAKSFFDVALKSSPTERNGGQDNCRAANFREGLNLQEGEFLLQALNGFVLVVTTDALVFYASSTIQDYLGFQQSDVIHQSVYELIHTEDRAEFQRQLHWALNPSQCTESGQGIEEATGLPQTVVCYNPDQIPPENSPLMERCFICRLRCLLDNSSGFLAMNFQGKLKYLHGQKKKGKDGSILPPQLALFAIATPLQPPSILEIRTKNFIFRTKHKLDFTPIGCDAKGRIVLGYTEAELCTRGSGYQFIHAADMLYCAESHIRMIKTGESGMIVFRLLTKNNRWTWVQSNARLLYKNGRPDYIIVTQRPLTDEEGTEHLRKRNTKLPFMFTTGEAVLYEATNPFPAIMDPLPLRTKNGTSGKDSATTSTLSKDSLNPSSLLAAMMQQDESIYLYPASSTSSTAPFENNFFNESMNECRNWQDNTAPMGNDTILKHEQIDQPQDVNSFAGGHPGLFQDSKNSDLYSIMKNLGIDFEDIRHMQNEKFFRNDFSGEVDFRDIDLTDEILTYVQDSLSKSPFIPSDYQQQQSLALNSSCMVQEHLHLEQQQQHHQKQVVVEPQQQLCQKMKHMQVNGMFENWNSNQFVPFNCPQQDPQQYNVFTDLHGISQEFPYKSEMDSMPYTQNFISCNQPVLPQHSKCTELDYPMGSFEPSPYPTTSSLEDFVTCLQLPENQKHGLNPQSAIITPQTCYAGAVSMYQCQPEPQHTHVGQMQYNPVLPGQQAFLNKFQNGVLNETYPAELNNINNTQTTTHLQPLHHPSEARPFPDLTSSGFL

DL-4 T-cell precursors = experiment: Analysis of T cell receptor rearrangement; assay type: cell-based, human
Protocol: TCR gene rearrangement analysis was performed in duplicate and on the two independently purified subsets (average is shown). TCR-δ quantification (D δ2-D δ3, D δ2-J δ1, and D δ3-J δ1) was performed with the listed sets of primers and probes. The analysis of TCR rearrangements by multiplex fluorescent PCR was performed by separation of fluorochrome-labeled single stand PCR products in a capillary sequencing polymer and detected via automated laser scanning.

[2] = system: CD34+ cells from cord blood; experiment: DL-4 culture of CD34+ cells, T-cell precursor generation (flow cytometry); assay type: cell-based, human; details: FIG. 9
Protocol: CD34+ cells from human CB or mobilized peripheral blood samples were cultured in 24-well plates or 6-well plates that had been coated with recombinant human fibronection (RetroNectin®, Clontech/Takara) and DL-4 (5 μg/ml, PX'Therapeutics, Grenoble, France). Coating was performed for 2 h at 37° C., DL-4 coated wells were then blocked with bovine serum albumin 2% (BSA) in phosphate-buffered saline (PBS) for 30 minutes at 37° C. and washed with PBS. […] Cultured cells were analyzed by fluorescence-activated cell sorting (FACS) after 3 and 7 days of culture on DL-4 respectively to exclude CD34-/CD7-myeloid cells from subsequent analyses.
Human cells were stained and analyzed using a Gallios analyzer (Beckman Coulter, Krefeld, Germany). […] The data were analyzed using FlowJo software (Treestar, Ashland, Oreg.) after gating on viable, 7AAD-negative cells.
The data were analyzed using FlowJo software (version 10.2, Treestar, Ashland, Oreg.) after gating on viable, 7AAD-negative cells.

Row | SMILES | pIC50 [1] | TCRdelta rearrangements (DL-4 T-cell precursors; CB cells) | signs of TCR rearrangement (DL-4 T-cell precursors; after 7 days of culture) | T-cell differentiation, CD5+CD7+ cells at day 7 [2]
1 | Cc1ccccc1N=Nc1ccc(NC(=O)c2ccnn2C)c(C)c1 [CH 223191] | 7.52 | – | – | –
2 | CC(C)n1cnc2c(NCCc3ccc(O)cc3)nc(-c3csc4ccccc34)nc21 [SR1, 4-(2-(2-(Benzo[b]thiophen-3-yl)-9-isopropyl-9H-purin-6-ylamino)ethyl)phenol] | – | Detection of D52-D53 rearrangements | do not exhibit any signs of TCR rearrangement | accelerates T-cell differentiation
